{"source": "patent US12472158B2", "about": "“Methods of treating trigeminal nerve pain” (Vanderbilt University, priority 2019, dated 2025)", "origin": "cited, not measured here", "key": {"[1]": {"settings": "lidocaine alone (active control group); medical literature and expert opinion"}, "[2]": {"system": "contraction of the nictitating membrane in cats", "settings": "i.v., dose giving 50% reduction of the nictitating membrane contraction"}, "α-2A adrenergic receptor": {"target": "T1, α-2A adrenergic receptor (Homo sapiens, UniProt P08913)", "T1 sequence (P08913 1-465)": "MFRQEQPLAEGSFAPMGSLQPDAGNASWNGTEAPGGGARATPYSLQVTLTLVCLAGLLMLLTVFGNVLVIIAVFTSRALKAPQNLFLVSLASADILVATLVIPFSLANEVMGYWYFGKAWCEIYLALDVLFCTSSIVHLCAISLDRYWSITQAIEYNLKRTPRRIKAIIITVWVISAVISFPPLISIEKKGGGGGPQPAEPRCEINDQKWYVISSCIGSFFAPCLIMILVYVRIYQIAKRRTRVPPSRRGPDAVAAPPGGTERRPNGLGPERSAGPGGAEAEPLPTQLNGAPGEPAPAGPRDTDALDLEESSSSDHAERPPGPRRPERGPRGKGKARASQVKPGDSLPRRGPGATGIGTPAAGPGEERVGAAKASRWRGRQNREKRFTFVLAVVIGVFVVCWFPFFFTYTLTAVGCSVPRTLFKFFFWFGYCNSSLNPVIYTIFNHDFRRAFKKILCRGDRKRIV", "settings": "α-2A vs α-2B and α-2C"}, "goat model": {"system": "goat model", "settings": "for duration of antinociceptive effect: intrathecal"}, "[3]": {"settings": "among the alpha-2 agonists"}, "subarachnoid space": {"system": "subarachnoid space", "settings": "75 mcg in 15 μl saline, intrathecal route"}}}
{"smiles": "CCN(CC)CC(=O)Nc1c(C)cccc1C", "note": "[lidocaine]", "values": [{"measurement": "mean duration of pain relief", "setting": "[1]", "result": "approximately 140 minutes"}]}
{"smiles": "Cl.N=C(N)NC(=O)Cc1c(Cl)cccc1Cl", "note": "[guanfacine, N-amidino-2-(2,6-dichlorophenyl) acetamide]", "values": [{"measurement": "Reduction of the neck sympathicus stimulus ED50", "setting": "[2]", "result": 0.3, "unit": "mg/kg"}, {"measurement": "affinity for α-2A adrenergic receptor compared to α-2B and α-2C adrenergic receptor", "setting": "α-2A adrenergic receptor", "result": "15- to 20 fold"}, {"measurement": "elimination half-life", "setting": "in vivo", "result": "~17", "unit": "h"}, {"measurement": "oral bioavailability", "setting": "oral", "result": "around 80%"}, {"measurement": "renal excretion", "setting": "share of elimination", "result": "~50", "unit": "%"}, {"measurement": "elimination from spinal cord tissue", "setting": "goat model; compared with clonidine", "result": "slower elimination"}, {"measurement": "duration of antinociceptive effect", "setting": "goat model", "result": 8, "unit": "h"}, {"measurement": "rate of elimination from spinal cord tissue", "setting": "rat model; compared to clonidine", "result": "lower rate of elimination"}, {"measurement": "duration of anti-nociceptive effect", "setting": "rat model; rat model, intrathecal, both 25 mcg and 50 mcg", "result": "greater than 18 h"}, {"measurement": "rate of sedation", "setting": "[3]", "result": "lowest rate of sedation"}, {"measurement": "toxicity in the subarachnoid space", "setting": "subarachnoid space", "result": "nontoxic"}]}
{"smiles": "Clc1cccc(Cl)c1N=C1NCCN1", "note": "[clonidine]", "values": [{"measurement": "duration of antinociceptive effect", "setting": "goat model", "result": 5, "unit": "h"}, {"measurement": "time for anti-nociceptive effect to decline to baseline", "setting": "rat model; rat model, injection 50 mcg", "result": "≤ 4", "unit": "h"}]}
{"smiles": "Cc1cccc(C)c1CC(=O)NC(=N)N", "note": "[2,6-dimethylphenyl-acetyl-guanidine]", "values": [{"measurement": "Reduction of the neck sympathicus stimulus ED50", "setting": "[2]", "result": 1.0, "unit": "mg/kg"}]}
